Assay results from US11248030B2, “Dual IL-2R and IL-7R binding compounds” (MEDIKINE, INC., priority 2019, dated 2022).
pIC50: −log10 of the molar value.

Columns and labels:
[1] = target: T1, IL-2Rβ subunit (Homo sapiens, UniProt P14784); experiment: competitive binding assay, specific binding site on the IL-2Rβ subunit
T1 construct: human IL-2Rβ (CD122 protein, Fc Tag) (27-239); Fc; purchased ACRObiosystems, Inc. ILB-H5253

[2] = target: T2, IL-7Rα subunit (Homo sapiens, UniProt P16871); experiment: competitive binding assay, specific binding site on the IL-7Rα subunit; conditions: specific binding site distinct from that of IL-7
T2 construct: human IL-7Rα (CD127 protein, Fc Tag) (21-236); Fc; purchased ACRObiosystems, Inc. ILB-H5258
T2 sequence (P16871 21-236): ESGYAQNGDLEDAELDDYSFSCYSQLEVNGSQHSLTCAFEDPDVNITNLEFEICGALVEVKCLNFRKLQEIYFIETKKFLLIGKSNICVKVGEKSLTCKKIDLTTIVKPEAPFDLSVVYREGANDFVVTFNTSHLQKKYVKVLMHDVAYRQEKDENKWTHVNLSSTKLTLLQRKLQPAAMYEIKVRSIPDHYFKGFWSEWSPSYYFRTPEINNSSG

T1 sequence (P14784 27-239): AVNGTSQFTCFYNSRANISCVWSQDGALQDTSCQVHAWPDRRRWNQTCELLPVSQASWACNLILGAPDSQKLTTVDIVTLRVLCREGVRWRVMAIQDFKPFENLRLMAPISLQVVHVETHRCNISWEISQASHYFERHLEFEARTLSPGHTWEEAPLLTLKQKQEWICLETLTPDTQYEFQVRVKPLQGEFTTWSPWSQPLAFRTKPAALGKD

| Compound | pIC50 [1] | pIC50 [2] |
| --- | --- | --- |
| CC[C@H](C)[C@@H]1NC(=O)[C@H](CCCNC(=N)N)NC(=O)[C@@H](NC(=O)[C@H](CC(=O)O)NC(=O)[C@@H](N)Cc2ccc(O)cc2)CSSC[C@@H](C(=O)N[C@@H](CC(=O)O)C(=O)N[C@@H](CC(C)C)C(=O)O)NC(=O)[C@H](CC(C)C)NC(=O)[C@H](CCC(=O)O)NC(=O)CNC(=O)[C@H](C(C)C)NC(=O)[C@H](CCC(N)=O)NC(=O)[C@H](C)NC1=O [SEQ ID NO: 154, Y D C R I A Q V G E L C D L] | > 5.00 | – |
| CC[C@H](C)[C@H](NC(=O)[C@H](CCC(N)=O)NC(=O)[C@@H]1CSSC[C@H](NC(=O)[C@H](CCSC)NC(=O)[C@@H](N)CC(N)=O)C(=O)N[C@@H](CC(C)C)C(=O)N[C@@H](C(C)C)C(=O)NCC(=O)N[C@@H](CC(=O)O)C(=O)N[C@@H](Cc2ccc(O)cc2)C(=O)N[C@@H](Cc2c[nH]c3ccccc23)C(=O)N2CCC[C@H]2C(=O)N[C@@H](CO)C(=O)N1)C(=O)O [SEQ ID NO: 180, N M C L V G D Y W P S C Q I] | > 5.00 | – |
| CC[C@H](C)[C@@H]1NC(=O)[C@H](CCC(=O)O)NC(=O)[C@H](C)NC(=O)[C@@H](NC(=O)[C@H](Cc2ccc(O)cc2)NC(=O)[C@@H](N)C(C)C)CSSC[C@@H](C(=O)N[C@@H](CCCNC(=N)N)C(=O)N[C@@H](CCC(N)=O)C(=O)O)NC(=O)[C@H](C(C)C)NC(=O)[C@H](CCCNC(=N)N)NC(=O)[C@H](Cc2ccc(O)cc2)NC(=O)[C@H](CCC(=O)O)NC(=O)CNC1=O [SEQ ID NO: 2043, V Y C A E I G E Y R V C R Q] | – | > 5.00 |

The next lines start with the values.

| pIC50 [1] | pIC50 [2] | Compound |
| --- | --- | --- |
| > 5.00 | – | CSCC[C@H](NC(=O)[C@H](CC(C)C)NC(=O)[C@H](CC(C)C)NC(=O)[C@H](CC(=O)O)NC(=O)CNC(=O)[C@@H](NC(=O)[C@H](CC(=O)O)NC(=O)CNC(=O)[C@H](Cc1c[nH]c2ccccc12)NC(=O)[C@@H](N)CCCNC(=N)N)C(C)C)C(=O)N1CCC[C@H]1C(=O)N[C@@H](CC(C)C)C(=O)O [SEQ ID NO: 209, R W G D V G D L L M P L] |
| – | > 5.00 | CC[C@H](C)[C@@H]1NC(=O)[C@@H](NC(=O)[C@@H](N)CCC(N)=O)CSSC[C@@H](C(=O)N[C@H](C(=O)O)C(C)C)NC(=O)[C@H](CO)NC(=O)[C@H](CC(C)C)NC(=O)[C@H](CC(C)C)NC(=O)[C@H]([C@@H](C)O)NC(=O)[C@H](CCC(=O)O)NC(=O)[C@H]([C@@H](C)CC)NC(=O)[C@H](CC(=O)O)NC(=O)[C@H](Cc2c[nH]c3ccccc23)NC(=O)[C@H](Cc2c[nH]cn2)NC1=O [SEQ ID NO: 2159, Q C I H W D I E T L L S C V] |
| – | > 5.00 | CC(C)C[C@@H]1NC(=O)[C@H](CO)NC(=O)CNC(=O)[C@@H]2CCCN2C(=O)[C@H](CC(=O)O)NC(=O)[C@H](CC(C)C)NC(=O)[C@H]([C@@H](C)O)NC(=O)[C@@H](NC(=O)[C@H](Cc2c[nH]c3ccccc23)NC(=O)[C@@H]2CCCN2C(=O)[C@@H](N)C(C)C)CSSC[C@@H](C(=O)N[C@@H](C)C(=O)N[C@@H](Cc2c[nH]c3ccccc23)C(=O)N[C@@H](Cc2ccccc2)C(=O)O)NC(=O)[C@H](CCC(N)=O)NC1=O [SEQ ID NO: 2313, V P W C T L D P G S L Q C A W F] |
